Assay results reported in the NIST ThermoML archive (doi:10.1016/j.fluid.2013.10.022).
Numbers after ± are expanded uncertainties.

Tests used:
[1] = refractive index (Na D-line) (dimensionless); conditions: 298.2 K; 101.33 kPa; Liquid; Standard Abbe refractometry
[2] = 298.2 K; 101.33 kPa; Liquid; Vibrating tube method

CCCCC(CC)CO (configuration not stated) [2-ethyl-1-hexanol]
refractive index [1]: 1.4293 ± 0.0008
mass density [2]: 830.22 ± 0.24 kg/m3

CCCC(=O)O [butanoic acid]
refractive index [1]: 1.3977 ± 0.0008
mass density [2]: 952.68 ± 0.23 kg/m3

CCCCCCCCO [octan-1-ol]
refractive index [1]: 1.4276 ± 0.0008
mass density [2]: 821.69 ± 0.24 kg/m3

O [water]
refractive index [1]: 1.3324 ± 0.0008
